# Reference: patent publication US20100113436A1, “DISPIRO TETRAOXANE COMPOUNDS AND THEIR USE IN THE TREATMENT OF MALARIA AND/OR CANCER” (priority 2006, published 2010)
# Several values for one entry are separate records, joined by “and”; a condition that tells them apart may be missing. Equal entries are not always repeated. Where two headings read alike, the source gives them in different places. Marks after values point to notes of the source that are not given here.
# Assays:
# [1] = tested on: Plasmodium yoelli; experiment: 4-day Peter's suppressive test; type: in vivo; conditions: 4-day Peter's test, mice
# Experimental: Selections of the compounds were screened for in vivo activity. In vivo data (Table 6) was determined using 30 mg/kg oral (po) and subcutaneous (sc) doses in a 4-days Peter's test. For subcutaneous administration, compounds were dissolved in 10% dimethylsulfoxide (DMSO) 0.05% Tween 80 (Sigma, Dorset, UK) in distilled water. For oral administration, compounds were dissolved in standard suspending formula (SSV) [0.5% sodium carboxymethylcellulose, 0.5% benzyl alcohol, 0.4% Tween 80, 0.9% NaCl (all Sigma)]. Subcutaneous (s.c) or oral (p.o) treatment was done with 0.2 ml of a solution of the test compound two hours (day 0) and on days 1, 2, and 3 post infections. Parasitaemia was determined by microscopic examination of Giemsa stained blood films taken on day 4. Microscopic counts of blood films from each mouse were processed using MICROSOFT@EXCELL spreadsheet (Microsoft Corp.) and expressed as percentage of inhibition from the arithmetic mean parasitaemias of each group in relation to the untreated group.
# [2] = tested on: P. berghei ANKA; experiment: In vivo dose response screening against P. berghei ANKA; set-up: species or system mice; conditions: for ED50: Plasmodium berghei
# Experimental: Compound 29c, 29h and 291 were then subjected to dose response experiment against the P. berghei ANKA and the results are summarized in Table 7 below.
# [3] = tested on: 3D7 strain of Plasmodium falciparum; experiment: In vitro antimalarial activity, 48-h [3H]-hypoxanthine incorporation assay; type: cell-based
# Experimental: The 3D7 strain of Plasmodium falciparum was used in this study. This strain is known to be […] Parasites were maintained in continuous culture using the method of Jensen and Trager^4. […] Stock drug solutions were prepared in 100% dimethylsulphoxide (DMSO) and diluted to the appropriate concentration using complete medium. Assays were performed in sterile 96-well microlitre plates, each plate contained 200 μl of parasite culture (2% parasitemia, 0.5% haematocrit) with or without 10 μl drug dilutions. Each drug was tested in triplicate and parasite growth compared to control wells (which constituted 100% parasite growth). […] IC50 values were calculated by interpolation of the probit transformation of the log dose-response curve.
# [4] = tested on: Plasmodium falciparum PH3; experiment: In vitro analysis versus strains of Plasmodium falciparum: PH3; type: cell-based
# [5] = tested on: P. berghei ANKA; experiment: In vivo dose response screening against P. berghei ANKA; conditions: P. berghei ANKA infected mice, Table 9; for ED90: sigmoidal curve calculation
# [6] = tested on: H9c2(2-1) Myocardium, heart; experiment: Cellular cytotoxicity screen, Resazurin reduction; type: cell-based, rat; conditions: H9c(2-1); for Theraputic Index (TI): ratio TOX 50 to IC50 against 3D7 P. falciparum
# Excerpt: (§1) Values represent Tox 50 in μM. Cytotoxicity measured by Resazurin reduction.
# (§2) Single full dose response curves generated using 10 independent drug concentrations. The 100 therapeutic index (TI) is the ration of the TOX 50 to the IC50 for the specific compound against the 3D7 P. falciparum isolate. The primary hepatocytes have demonstrable drug metabolising activity. The tetraoxane derivatives are remarkably non-toxic in these screens with in vitro TIs of between 5000 to 17000!.
# [7] = tested on: L6 Sketal muscle myoblast; experiment: Cellular cytotoxicity screen, Resazurin reduction; type: cell-based, rat; conditions: for Theraputic Index (TI): ratio TOX 50 to IC50 against 3D7 P. falciparum
# Excerpt: as §1, §2
# [8] = tested on: MRC-5 Embryonal lung, diploid; experiment: Cellular cytotoxicity screen, Resazurin reduction; type: cell-based, Human; conditions: for Theraputic Index (TI): ratio TOX 50 to IC50 against 3D7 P. falciparum
# Excerpt: as §1, §2
# [9] = tested on: HepG2 Human hepatocyte carcinoma; experiment: Cellular cytotoxicity screen, Resazurin reduction; type: cell-based; conditions: Hep2G; for Theraputic Index (TI): ratio TOX 50 to IC50 against 3D7 P. falciparum
# Excerpt: as §1, §2
# [10] = tested on: Vero Kidney; experiment: Cellular cytotoxicity screen, Resazurin reduction; type: cell-based, African green monkey, Cercopithecus aethiops; conditions: for Theraputic Index (TI): ratio TOX 50 to IC50 against 3D7 P. falciparum
# Excerpt: as §1, §2
# [11] = tested on: Salmonella typhimurium TA1535/pSK1002; experiment: Salmonella typhimurium SOS/umu genotoxicity assay; conditions: for Max. Fold Increase / Potential genotox: −S9; for genotoxicity result in SOS/umu assay: both strains TA1535/pSK1002 and NM2009, highest concentration tested 50 μM, absence and presence of S-9 mix
# Excerpt: (§3) This assay is based on the ability of DNA damaging agents to induce the expression of the umu operon. The Salmonella strains have a plasmid pSK1002 which carries an umuC-lacZ fused gene that produces a hybrid protein with β-galactosidase activity and whose expression is controlled by the umu regulatory region.
# [12] = tested on: Salmonella typhimurium NM2009; experiment: Salmonella typhimurium SOS/umu genotoxicity assay; conditions: for Max. Fold Increase / Potential genotox: −S9
# Excerpt: as §3
# [13] = physchem
# [14] = tested on: Plasmodium falciparum GC03; experiment: In vitro analysis versus strains of Plasmodium falciparum: GC03; type: cell-based; conditions: GC03 strain, read-out: IC50
# [15] = tested on: Plasmodium falciparum HB3; experiment: In vitro analysis versus strains of Plasmodium falciparum: HB3; type: cell-based; conditions: HB3 strain, read-out: IC50
# [16] = tested on: Plasmodium falciparum DD2; experiment: In vitro analysis versus strains of Plasmodium falciparum: DD2; type: cell-based; conditions: DD2 strain, read-out: IC50
# [17] = tested on: Plasmodium falciparum TM4; experiment: In vitro analysis versus strains of Plasmodium falciparum: TM4; type: cell-based; conditions: TM4 strain, read-out: IC50
# [18] = tested on: Plasmodium falciparum K1; experiment: In vitro analysis versus strains of Plasmodium falciparum: K1; type: cell-based; conditions: K1 strain
# [19] = Timed iron degradation stability, FeBr2 in THF; type: physicochemical; conditions: ferrous bromide/THF
# Excerpt: The resulting residue was purified by flash column chromatography and the % recovery of starting endoperoxide calculated (Table 15).
# [20] = Chloroquine Resistant Strains of the P. Berghei ANKA, Table 7
# [21] = in Mus musculus, Chloroquine Resistant Strains of the P. Berghei ANKA, Table 7
# [22] = 3D7, 3D7 strain, mean of triplicate results, Table 5, read-out: Mean IC50
structure (smiles),measurement,setting,value
"CO[C@H]1O[C@@H]2O[C@@]3(C)CC[C@H]4[C@H](C)CC[C@@H]([C@H]1C)[C@@]24OO3 [Artemether, artemether, reference compound]",Percentage of inhibition at 30 mg/kg (p.o),[1],100%
same,ED90,[2]; [20],10.57 mg/kg
same,ED50,[2]; [21],5.88 mg/kg
same,IC50,[3]; [22],1.7 nM
same,IC50,"[3]; 3D7, sulfonamide dispiro 1,2,4,5-tetraoxanes, Table 8, read-out: Mean IC50",3.2 nM
"C[C@H]1[C@H](OC(=O)CCC(=O)O)O[C@@H]2O[C@@]3(C)CC[C@H]4[C@H](C)CC[C@@H]1[C@@]24OO3 [Artesunate, artesunate]",Percentage of inhibition at 30 mg/kg (p.o),[1],100%
same,IC50,[4],0.9 nM
same,ED50,[5],2.90 mg/kg
same,ED90,[5],17.78 mg/kg and 16.67 mg/kg
same,ED50,"[5]; Plasmodium berghei, in Mus musculus",3.2 mg/kg
COc1cccc2c1C(=O)c1c(O)c3c(c(O)c1C2=O)C[C@@](O)(C(=O)CO)C[C@@H]3O[C@H]1C[C@H](N)[C@H](O)[C@H](C)O1 [Doxorubicin],Tox 50,[6],3 µM
same,Tox 50,[7],>5 µM
same,Tox 50,[8],2 µM
same,Tox 50,[9],0.3 µM
same,Tox 50,[10],>5 µM
"Nc1ccc2cc3ccccc3cc2c1 [Tetraoxane 2Aan, 2-Aminoanthracene, reference compound]",MCE TA1535 (Maximum Co w/o effects on bacteria growth or β-galactosidase production),[11]; positive controls,5 µg/mL
same,Max. Fold Increase,[11],1.10 ± 0.11 fold
same,Potential genotox,[11],NEG
same,MCE NM2009 (Maximum Co w/o effects on bacteria growth or beta-galactosidase production),[12]; in the presence of rat S9,0.31* μg/mL
same,Max. Fold Increase,[12],1.08 ± 0.01 fold
same,Potential genotox,[12],NEG
same,solubility,[13],5 µg/mL
"O=C(CC1CCC2(CC1)OOC1(CCCCC1)OO2)NC1CC1 [Tetraoxane 27c, N-Cyclopropyl-2-(7,8,15,16-tetraoxa-dispiro[5.2.5.2]hexadec-3-yl)-acetamide]",Percentage of inhibition at 30 mg/kg (p.o),[1],24.8%
same,melting point,,148 to 150 °C
"O=C(CC1CCC2(CC1)OOC1(CCCCC1)OO2)N1CCOCC1 [Tetraoxane 27h, 1-Morpholin-4-yl-2-(7,8,15,16-tetraoxa-dispiro[5.2.5.2]hexadec-3-yl)-ethanone]",Percentage of inhibition at 30 mg/kg (p.o),[1],33.0%
same,IC50,[3]; [22],22.2 nM
same,melting point,,126 to 128 °C
"O=C(CC1CCC2(CC1)OOC1(OO2)C2CC3CC(C2)CC1C3)NC1CC1 (stereo not shown) [Tetraoxane 29c, Adamantyl-N-Cyclopropyl tetraoxane acetamide]",Percentage of inhibition at 30 mg/kg (p.o),[1],100%
same,ED90,[2]; [20],20.33 mg/kg
same,ED50,[2]; [21],10.3 mg/kg
same,IC50,[3]; [22],2.3 nM
same,melting point,,140 to 142 °C
"O=C(CC1CCC2(CC1)OOC1(OO2)C2CC3CC(C2)CC1C3)N1CCOCC1 (stereo not shown) [Tetraoxane 29h, Adamantly-1-Morpholin-4-yl tetraoxane acetamide]",Percentage of inhibition at 30 mg/kg (p.o),[1],100%
same,IC50,"[4]; PH3 strain, read-out: IC50",0.3 nM
same,ED90,[2]; [20],3.88 mg/kg
same,ED50,[2]; [21],3.18 mg/kg
same,MCE TA1535 (Maximum Co w/o effects on bacteria growth or β-galactosidase production),[11]; Salmonella typhimurium,50 µM
same,genotoxicity result in SOS/umu assay,[11],Negative
same,Max. Fold Increase,[11],1.04 ± 0.04 fold
same,Potential genotox,[11],NEG
same,MCE NM2009 (Maximum Co w/o effects on bacteria growth or beta-galactosidase production),[12]; Salmonella typhimurium,50 µM
same,Max. Fold Increase,[12],1.22 ± 0.03 fold
same,Potential genotox,[12],NEG
same,IC50,[14],0.9 nM
same,IC50,[15],1.4 nM
same,Tox 50,[6],>50 µM
same,Theraputic Index (TI),[6],>16666
same,Tox 50,[7],23 µM
same,Theraputic Index (TI),[7],7666
same,IC50,[16],0.6 nM
same,Tox 50,[8],>50 µM
same,Theraputic Index (TI),[8],>16666
same,IC50,"[3]; 3D7, read-out: Mean IC50",5.2 nM
same,Tox 50,[9],>50 µM
same,Theraputic Index (TI),[9],>16666
same,solubility,[13],50 µM
same,Tox 50,[10],>50 µM
same,Theraputic Index (TI),[10],>16666
same,IC50,[17],0.6 nM
same,melting point,,139 to 140 °C
same,IC50,[18],0.8 nM
CN1CCN(C(=O)CC2CCC3(CC2)OOC2(OO3)C3CC4CC(C3)CC2C4)CC1 (stereo not shown) [Tetraoxane 29l],Percentage of inhibition at 30 mg/kg (p.o),[1],100%
same,ED50,[2]; [21],2.7 mg/kg
same,IC50,[3]; [22],0.5 nM
O=S(=O)(C1CC1)N1CCC2(CC1)OOC1(OO2)C2CC3CC(C2)CC1C3 [Tetraoxane 39d],ED50,"[2]; P. berghei ANKA infected mice, Table 9",7.93 mg/kg
same,MCE TA1535 (Maximum Co w/o effects on bacteria growth or β-galactosidase production),[11]; Salmonella typhimurium,50 µM
same,genotoxicity result in SOS/umu assay,[11],Negative
same,Max. Fold Increase,[11],1.05 ± 0.09 fold
same,Potential genotox,[11],NEG
same,MCE NM2009 (Maximum Co w/o effects on bacteria growth or beta-galactosidase production),[12]; Salmonella typhimurium,50 µM
same,Max. Fold Increase,[12],1.09 ± 0.03 fold
same,Potential genotox,[12],NEG
same,Tox 50,[6],>50 µM
same,Theraputic Index (TI),[6],>14285
same,Tox 50,[7],>50 µM
same,Theraputic Index (TI),[7],>14285
same,Tox 50,[8],>50 µM
same,Theraputic Index (TI),[8],>14285
same,IC50,"[3]; 3D7, read-out: Mean IC50",3.52 nM
same,ED90,[5],49.77 mg/kg
same,Tox 50,[9],>50 µM
same,Theraputic Index (TI),[9],>14285
same,solubility,[13],50 µM
same,Tox 50,[10],>50 µM
same,Theraputic Index (TI),[10],>14285
O=S(=O)(c1ccccc1)N1CCC2(CC1)OOC1(O2)C2CC3CC(C2)CC1C3 (stereo not shown) [Tetraoxane 42],degradation,[19]; after 4 h,~90%
same,turnover,[19]; after 48 h,100%
O=S(=O)(c1ccccc1)N1CCC2(CC1)COC1(OO2)C2CC3CC(C2)CC1C3 (stereo not shown) [Tetraoxane 43],degraded,[19]; after 48 h,57%
